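Cultured in 96-well plates, cells were exposed to test compound for 48 hours across five concentrations. At the GI50, growth is halved.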 The source made the active and inactive calls. No stated cut-off is given here; in the data, active = GI50 up to about 1.1 µM and inactive = higher.
Columns and labels:
Test in all cases: NCI anticancer screen, dose series, 48 h
UACC-257 = test system: UACC-257
SK-MEL-2 = test system: SK-MEL-2
SK-MEL-28 = test system: SK-MEL-28
UO-31 = test system: UO-31
SN12C = test system: SN12C
SW-620 = test system: SW-620
U-251 = test system: U-251
EKVX = test system: EKVX
LOX IMVI = test system: LOX IMVI
RXF 393 = test system: RXF 393
SNB-78 = test system: SNB-78
Malme-3M = test system: Malme-3M
DLD-1 = test system: DLD-1
SNB-19 = test system: SNB-19
A549 = test system: A549
HOP-92 = test system: HOP-92
OVCAR-8 = test system: OVCAR-8
SK-MEL-5 = test system: SK-MEL-5
OVCAR-5 = test system: OVCAR-5
KM-20L2 = test system: KM-20L2
KM12 = test system: KM12
NCI-H23 = test system: NCI-H23
HOP-62 = test system: HOP-62
DMS-114 = test system: DMS-114
CAKI-1 = test system: CAKI-1
HCT-116 = test system: HCT-116
OVCAR-4 = test system: OVCAR-4
TK-10 = test system: TK-10
LXFL 529 = test system: LXFL 529
HCC 2998 = test system: HCC 2998
NCI-H460 = test system: NCI-H460
HL-60 = test system: HL-60
SF-268 = test system: SF-268
786-0 = test system: 786-0
NCI-H522 = test system: NCI-H522
HT-29 = test system: HT-29
M19-MEL = test system: M19-MEL
NCI-H226 = test system: NCI-H226
HOP-18 = test system: HOP-18
SF-539 = test system: SF-539
SNB-75 = test system: SNB-75
M14 = test system: M14
SF-295 = test system: SF-295
K562 = test system: K562
MOLT-4 = test system: MOLT-4
A498 = test system: A498
ACHN = test system: ACHN
OVCAR-3 = test system: OVCAR-3
RPMI-8226 = test system: RPMI-8226
SK-OV-3 = test system: SK-OV-3
IGROV-1 = test system: IGROV-1
DMS-273 = test system: DMS-273
HCT-15 = test system: HCT-15
COLO 205 = test system: COLO 205
SR = test system: SR
UACC-62 = test system: UACC-62

`CC(C)N(O)C(=N)c1ccccc1` was tested, and the GI50 (UACC-257) was > 100 µM (inactive), the GI50 (SK-MEL-2) was > 100 µM (inactive) and the GI50 (SK-MEL-28) was > 100 µM (inactive). For the same compound, the GI50 (UO-31) was > 100 µM (inactive), the GI50 (SN12C) was > 100 µM (inactive) and the GI50 (SW-620) was > 100 µM (inactive). The GI50 (U-251) was > 100 µM (inactive), the GI50 (EKVX) was > 100 µM (inactive) and the GI50 (LOX IMVI) was > 100 µM (inactive). For the same compound, the GI50 (RXF 393) was > 100 µM (inactive), the GI50 (SNB-78) was > 100 µM (inactive) and the GI50 (Malme-3M) was > 10 µM (inactive). The GI50 (DLD-1) was > 100 µM (inactive), the GI50 (SNB-19) was > 100 µM (inactive) and the GI50 (A549) was > 100 µM (inactive). The GI50 (HOP-92) was > 100 µM (inactive), the GI50 (OVCAR-8) was > 100 µM (inactive) and the GI50 (SK-MEL-5) was > 100 µM (inactive). For the same compound, the GI50 (OVCAR-5) was > 100 µM (inactive), the GI50 (KM-20L2) was > 100 µM (inactive) and the GI50 (KM12) was > 100 µM (inactive). For the same compound, the GI50 (NCI-H23) was > 100 µM (inactive), the GI50 (HOP-62) was > 100 µM (inactive) and the GI50 (DMS-114) was > 100 µM (inactive). For the same compound, the GI50 (CAKI-1) was > 100 µM (inactive), the GI50 (HCT-116) was > 100 µM (inactive) and the GI50 (OVCAR-4) was > 100 µM (inactive). For the same compound, the GI50 (TK-10) was > 100 µM (inactive), the GI50 (LXFL 529) was > 100 µM (inactive) and the GI50 (HCC 2998) was > 100 µM (inactive). For the same compound, the GI50 (NCI-H460) was > 100 µM (inactive), the GI50 (HL-60) was > 100 µM (inactive) and the GI50 (SF-268) was > 100 µM (inactive). The GI50 (786-0) was 54.7 µM (inactive), the GI50 (NCI-H522) was > 100 µM (inactive) and the GI50 (HT-29) was > 100 µM (inactive). For the same compound, the GI50 (M19-MEL) was > 100 µM (inactive), the GI50 (NCI-H226) was > 100 µM (inactive) and the GI50 (HOP-18) was 0.0473 µM (active). The GI50 (SF-539) was > 100 µM (inactive), the GI50 (SNB-75) was > 100 µM (inactive) and the GI50 (M14) was > 100 µM (inactive). The GI50 (SF-295) was > 100 µM (inactive).
With `CCOc1ccc2c(c1)[n+]([O-])c(-c1ccc(Cl)cc1)c(N)[n+]2[O-]` the GI50 (K562) was > 100 µM (inactive), the GI50 (UACC-257) was > 100 µM (inactive) and the GI50 (SK-MEL-2) was > 100 µM (inactive). For the same compound, the GI50 (MOLT-4) was 44.3 µM (inactive), the GI50 (A498) was > 100 µM (inactive) and the GI50 (SK-MEL-28) was > 100 µM (inactive). For the same compound, the GI50 (UO-31) was 67.1 µM (inactive), the GI50 (SN12C) was > 100 µM (inactive) and the GI50 (SW-620) was > 100 µM (inactive). The GI50 (U-251) was > 100 µM (inactive), the GI50 (EKVX) was 95.7 µM (inactive) and the GI50 (ACHN) was > 100 µM (inactive). The GI50 (SNB-78) was > 100 µM (inactive), the GI50 (Malme-3M) was > 100 µM (inactive) and the GI50 (DLD-1) was > 100 µM (inactive). For the same compound, the GI50 (SNB-19) was > 100 µM (inactive), the GI50 (A549) was > 100 µM (inactive) and the GI50 (HOP-92) was > 100 µM (inactive). For the same compound, the GI50 (OVCAR-8) was > 100 µM (inactive), the GI50 (SK-MEL-5) was > 100 µM (inactive) and the GI50 (OVCAR-5) was > 100 µM (inactive). For the same compound, the GI50 (KM-20L2) was > 100 µM (inactive), the GI50 (KM12) was > 100 µM (inactive) and the GI50 (OVCAR-3) was > 100 µM (inactive). The GI50 (NCI-H23) was > 100 µM (inactive), the GI50 (RPMI-8226) was 10.8 µM (inactive) and the GI50 (SK-OV-3) was > 100 µM (inactive). For the same compound, the GI50 (HOP-62) was > 100 µM (inactive), the GI50 (DMS-114) was 68.7 µM (inactive) and the GI50 (CAKI-1) was > 100 µM (inactive). For the same compound, the GI50 (HCT-116) was > 100 µM (inactive), the GI50 (OVCAR-4) was > 100 µM (inactive) and the GI50 (IGROV-1) was > 100 µM (inactive). The GI50 (LXFL 529) was 87.7 µM (inactive), the GI50 (DMS-273) was > 100 µM (inactive) and the GI50 (NCI-H460) was > 100 µM (inactive). For the same compound, the GI50 (HCT-15) was over 100 µM, the GI50 (HL-60) was 44 µM (inactive) and the GI50 (COLO 205) was > 100 µM (inactive). The GI50 (SF-268) was > 100 µM (inactive), the GI50 (786-0) was > 100 µM (inactive) and the GI50 (NCI-H522) was 34.4 µM (inactive). The GI50 (HT-29) was > 100 µM (inactive), the GI50 (NCI-H226) was > 100 µM (inactive) and the GI50 (HOP-18) was > 100 µM (inactive). The GI50 (SF-539) was > 100 µM (inactive), the GI50 (SNB-75) was 85.1 µM (inactive) and the GI50 (M14) was > 100 µM (inactive). The GI50 (SF-295) was > 100 µM (inactive) and the GI50 (SR) was > 100 µM (inactive).
`CCC(=O)Nc1nc2c(ncn2C2OC(COC(=O)CC)C(OC(=O)CC)C2OC(=O)CC)c(=O)[nH]1` (configuration not stated) was tested, and the GI50 (K562) was > 100 µM (inactive), the GI50 (UACC-257) was > 100 µM (inactive) and the GI50 (SK-MEL-2) was > 100 µM (inactive). For the same compound, the GI50 (MOLT-4) was > 100 µM (inactive), the GI50 (A498) was > 100 µM (inactive) and the GI50 (SK-MEL-28) was > 100 µM (inactive). For the same compound, the GI50 (UO-31) was > 100 µM (inactive), the GI50 (SN12C) was > 100 µM (inactive) and the GI50 (SW-620) was > 100 µM (inactive). For the same compound, the GI50 (U-251) was > 100 µM (inactive), the GI50 (EKVX) was > 100 µM (inactive) and the GI50 (LOX IMVI) was > 100 µM (inactive). The GI50 (RXF 393) was > 100 µM (inactive), the GI50 (ACHN) was > 100 µM (inactive) and the GI50 (SNB-78) was > 100 µM (inactive). For the same compound, the GI50 (Malme-3M) was > 100 µM (inactive), the GI50 (SNB-19) was > 100 µM (inactive) and the GI50 (A549) was > 100 µM (inactive). For the same compound, the GI50 (OVCAR-8) was > 100 µM (inactive), the GI50 (SK-MEL-5) was > 100 µM (inactive) and the GI50 (OVCAR-5) was > 100 µM (inactive). The GI50 (KM-20L2) was > 100 µM (inactive), the GI50 (KM12) was > 100 µM (inactive) and the GI50 (UACC-62) was > 100 µM (inactive). The GI50 (OVCAR-3) was > 100 µM (inactive), the GI50 (RPMI-8226) was > 100 µM (inactive) and the GI50 (SK-OV-3) was > 100 µM (inactive). The GI50 (HOP-62) was > 100 µM (inactive), the GI50 (CAKI-1) was > 100 µM (inactive) and the GI50 (HCT-116) was > 100 µM (inactive). The GI50 (OVCAR-4) was > 100 µM (inactive), the GI50 (IGROV-1) was > 100 µM (inactive) and the GI50 (LXFL 529) was > 100 µM (inactive). For the same compound, the GI50 (HCC 2998) was > 100 µM (inactive), the GI50 (DMS-273) was > 100 µM (inactive) and the GI50 (NCI-H460) was > 100 µM (inactive). The GI50 (HCT-15) was over 100 µM, the GI50 (HL-60) was 46.6 µM (inactive) and the GI50 (SF-268) was > 100 µM (inactive). The GI50 (786-0) was > 100 µM (inactive), the GI50 (NCI-H522) was > 100 µM (inactive) and the GI50 (HT-29) was > 100 µM (inactive). The GI50 (M19-MEL) was > 100 µM (inactive), the GI50 (NCI-H226) was > 100 µM (inactive) and the GI50 (SF-539) was > 100 µM (inactive). For the same compound, the GI50 (SNB-75) was > 100 µM (inactive), the GI50 (M14) was > 100 µM (inactive) and the GI50 (SF-295) was > 100 µM (inactive). For the same compound, the GI50 (SR) was > 100 µM (inactive).

— ChEMBL document CHEMBL1201862, “PubChem BioAssay data set” (2004)
